Measurements: ChEMBL document CHEMBL4229334, “Fluoroquinolone derivatives and their anti-tubercular activities” (Eur J Med Chem, 2018)
Values after ≈ are worked out from the molar mass of the structure shown.

Assays:
Format in all cases: functional
[1] = test system: Mycobacterium tuberculosis; experiment: Antibacterial activity against multidrug resistant Mycobacterium tuberculosis after 7 days by two fold dilution assay; conditions: 168 h
[2] = test system: Mycobacterium tuberculosis; experiment: Antibacterial activity against multidrug resistant Mycobacterium tuberculosis ATTC 27294 by Alamar Blue assay
[3] = test system: Mycobacterium tuberculosis; experiment: Antitubercular activity against rifampicin-resistant Mycobacterium tuberculosis after 21 days by two fold agar dilution method; conditions: 504 h
[4] = test system: Mycobacterium tuberculosis; experiment: Potency index, ratio of MIC for isoniazid to MIC for test compound for antitubercular activity against rifampicin-resistant Mycobacterium tuberculosis after 21 days by two fold agar dilution method
[5] = test system: Mycobacterium tuberculosis; experiment: Potency index, ratio of MIC for LVFX to MIC for test compound for antitubercular activity against rifampicin-resistant Mycobacterium tuberculosis after 21 days by two fold agar dilution method
[6] = test system: Mycobacterium tuberculosis; experiment: Potency index, ratio of MIC for rifampicin to MIC for test compound for antitubercular activity against rifampicin-resistant Mycobacterium tuberculosis after 21 days by two fold agar dilution method
[7] = test system: Mycobacterium tuberculosis; experiment: Potency index, ratio of MIC for GTFX to MIC for test compound for antitubercular activity against rifampicin-resistant Mycobacterium tuberculosis after 21 days by two fold agar dilution method

| SMILES | MIC [1] | MIC [2] | further results |
| --- | --- | --- | --- |
| NNC(=O)c1ccncc1 [ISONIAZID] | > 128 µg/mL | – | – |
| COc1c(N2CCNC(C)C2)c(F)cc2c(=O)c(C(=O)O)cn(C3CC3)c12 (stereo not given) [GATIFLOXACIN] | – | 0.1 to 0.6 µg/mL (≈ 0.266 to 1.6 µM) | – |
| O=C(O)c1cn(C2CC2)c2cc(N3CCNCC3)c(F)cc2c1=O [CIPROFLOXACIN] | – | 0.1 to 0.6 µg/mL (≈ 0.302 to 1.81 µM) | – |
| CO[C@H]1/C=C/O[C@@]2(C)Oc3c(C)c(O)c4c(O)c(c(/C=N/N5CCN(C)CC5)c(O)c4c3C2=O)NC(=O)/C(C)=C\C=C\[C@H](C)[C@H](O)[C@@H](C)[C@@H](O)[C@@H](C)[C@H](OC(C)=O)[C@@H]1C [RIFAMPIN] | 32 µg/mL (≈ 38.9 µM) | – | – |
| C[C@H]1COc2c(N3C[C@H]4CCCN[C@H]4C3)c(F)cc3c(=O)c(C(=O)O)cn1c23 | – | – | MIC [3]: 0.2 to 1.7 µg/mL (≈ 0.516 to 4.39 µM); Ratio [4]: >=2.7 - 250; Ratio [5]: >=2.7 - 250; Ratio [6]: >=2.7 - 250; Ratio [7]: >=2.7 - 250 |
| COc1c(N2C[C@@H]3CCCN[C@@H]3C2)c(F)cc2c(=O)c(C(=O)O)cn(C3CC3)c12 [MOXIFLOXACIN] | – | 0.1 to 0.6 µg/mL (≈ 0.249 to 1.49 µM) | – |
